In patent publication US12145913B2, “Inhibition of Olig2 activity” (Curtana Pharmaceuticals, Inc., priority 2016, dated 2024):

System: GBM8 human glioblastoma cells
Test: GBM8 viability assay (Cell Titer Glo)
Type: cell-based
Details: 72 h, luminescence
Protocol: Cell culture medium was prepared from a NSA proliferation kit (Neurocult) and NeuroCult supplements (Stemcell Tech Cat. #05751) and treated with 20 μL of 10 μg/mL rh EGF, 10 μL of 10 μg/mL rh bFGF and 10 μL of 0.2% Heparin. In this medium, human glioblastoma cells were cultured in ultra-low attachment tissue culture flasks until 1×10^6 cells ml was achieved (GBM4 and GBM8 are distinct neurosphere cell cultures derived from these human patient tissues). GBM4 and GBM8 cells were dissociated and 10 mL of media containing 4000 human glioblastoma cells per 90 μL were transferred to an ultra-low binding 96-well plate and incubated at 37° C. overnight. On the following day, 10 μL of a 1% DMSO solution of test compound in assay medium was added to wells containing the cell suspension and the mixture incubated at 37° C. for 3 days. At this time, the plate was removed from the incubator and allowed to reach room temperature. After about 30 minutes, 50 μL of Cell Titer Glo solution was added to each well and the plate shaken for 1 minute at low speed. After 10 minutes luminescence was recorded using a Tecan Safire2 reader.
Reduction in luminescence compared to DMSO only control wells was used to determine the percentage inhibition of cell growth. IC50s were calculated using the % inhibition of luminescence for serial dilutions of compounds fitted to a 4-parameter fit within the Prism (San Diego) curve fitting program. Tables 1 (compounds 3-188) and 2 (compounds 190-212) show the GBM4 IC50 and GBM8 IC50 for compounds described herein.

IC50 (Table 1, 3 days incubation) [nM]	IC50 (Table 2, 3 days incubation) [nM]	SMILES
< 500		CC(=O)NCCCNc1cc(C)nc(NC(=O)Nc2ccc(OC(C)C)cc2)n1 [Compound 142, N-(3-((2-(3-(4-isopropoxyphenyl)ureido)-6-methylpyrimidin-4-yl)amino)propyl)acetamide]
500 to 5000		Cc1cc(NCCN)nc(NC(=O)Nc2ccc3ccccc3n2)n1 [Compound 98, 1-(4-((2-aminoethyl)amino)-6-methylpyrimidin-2-yl)-3-(quinolin-2-yl)urea]
500 to 5000		CC(=O)NCCNc1cc(C)nc(NC(=O)Nc2ccc3ccccc3n2)n1 [Compound 101, N-(2-((6-methyl-2-(3-(quinolin-2-yl)ureido)pyrimidin-4-yl)amino)ethyl)acetamide]
	5000 to 30000	CNCCCNc1cc(C2CC2)nc(NC(=O)Nc2ccc(Cl)c(Cl)c2)n1 [Compound 206, 1-(4-cyclopropyl-6-((3-(methylamino)propyl)amino)pyrimidin-2-yl)-3-(3,4-dichlorophenyl)urea]
500 to 5000		O=C(Nc1ccc2ccccc2c1)Nc1nccc(NO)n1 [Compound 161, 1-(4-(hydroxyamino)pyrimidin-2-yl)-3-(naphthalen-2-yl)urea]
< 500		Cc1cc(NO)nc(NC(=O)Nc2ccc3cnccc3c2)n1 [Compound 62, 1-(4-(hydroxyamino)-6-methylpyrimidin-2-yl)-3-(isoquinolin-6-yl)urea]
< 500		Cc1cc(NCCCN(C)C)nc(NC(=O)Nc2ccc3cnccc3c2)n1 [Compound 50, 1-(4-((3-(dimethylamino)propyl)amino)-6-methylpyrimidin-2-yl)-3-(isoquinolin-6-yl)urea]
	5000 to 30000	CC(C)c1cc(N)nc(NC(=O)Nc2ccc3ccccc3c2)n1 [Compound 190, 1-(4-amino-6-isopropylpyrimidin-2-yl)-3-(naphthalen-2-yl)urea]
< 500		CC(=O)NCCNc1cc(C)nc(NC(=O)Nc2ccc(OC(C)C)cc2)n1 [Compound 140, N-(2-((2-(3-(4-isopropoxyphenyl)ureido)-6-methylpyrimidin-4-yl)amino)ethyl)acetamide]
< 500		Cc1cc(NCCN(C)C)nc(NC(=O)Nc2ccc(OC(C)C)cc2)n1 [Compound 137, 1-(4-((2-(dimethylamino)ethyl)amino)-6-methylpyrimidin-2-yl)-3-(4-isopropoxyphenyl)urea]
500 to 5000		CC(=O)NCCCNc1cc(C)nc(NC(=O)Nc2ccc3ncccc3c2)n1 [Compound 109, N-(3-((6-methyl-2-(3-(quinolin-6-yl)ureido)pyrimidin-4-yl)amino)propyl)acetamide]
< 500		Cc1cc(NCCCN)nc(NC(=O)Nc2ccc(C(=O)c3ccccc3)cc2)n1 [Compound 155, 1-(4-((3-aminopropyl)amino)-6-methylpyrimidin-2-yl)-3-(4-benzoylphenyl)urea]
500 to 5000		Cc1cc(NCCC(=O)N(C)C)nc(NC(=O)Nc2ccc3cnccc3c2)n1 [Compound 76, 3-((2-(3-(isoquinolin-6-yl)ureido)-6-methylpyrimidin-4-yl)amino)-N,N-dimethylpropanamide]
< 500		CC(=O)NCCCNc1cc(C)nc(NC(=O)Nc2ccc3occc3c2)n1 [Compound 85, N-(3-((2-(3-(benzofuran-5-yl)ureido)-6-methylpyrimidin-4-yl)amino)propyl)acetamide]
< 500		CCNc1cc(C)nc(NC(=O)Nc2ccc3cnccc3c2)n1 [Compound 54]
500 to 5000		Cc1cc(N(C)C)nc(NC(=O)Nc2ccc3ccccc3c2)n1 [Compound 21]
< 500		CCNc1cc(C)nc(NC(=O)Nc2ccc(-c3ccccc3)cc2)n1 [Compound 126, 1-([1,1′-biphenyl]-4-yl)-3-(4-(ethylamino)-6-methylpyrimidin-2-yl)urea]

IC50 (Table 1, 3 days incubation) [nM]	IC50 (Table 2, 3 days incubation) [nM]	SMILES
< 500		CC(=O)NCCCNc1cc(C)nc(NC(=O)Nc2ccc3ccccc3c2)n1 [Compound 34, N-(3-((6-methyl-2-(3-(naphthalen-2-yl)ureido)pyrimidin-4-yl)amino)propyl)acetamide]
500 to 5000		Cc1cc(NCCN)nc(NC(=O)Nc2ccc3cnccc3c2)n1 [Compound 52, 1-(4-((2-aminoethyl)amino)-6-methylpyrimidin-2-yl)-3-(isoquinolin-6-yl)urea]
	500 to 5000	CC(C)c1cc(NO)nc(NC(=O)Nc2ccc(OC(F)(F)F)cc2)n1 [Compound 199, 1-(4-(hydroxyamino)-6-isopropylpyrimidin-2-yl)-3-(4-(trifluoromethoxy)phenyl)urea]
< 500		Cc1cc(NO)nc(NC(=O)Nc2ccc(OC(F)(F)F)cc2)n1 [Compound 147, 1-(4-(hydroxyamino)-6-methylpyrimidin-2-yl)-3-(4-(trifluoromethoxy)phenyl)urea]
< 500		Cc1cc(NCCN(C)C)nc(NC(=O)Nc2ccc3occc3c2)n1 [Compound 81, 1-(benzofuran-5-yl)-3-(4-((2-(dimethylamino)ethyl)amino)-6-methylpyrimidin-2-yl)urea]
< 500		CONc1cc(C)nc(NC(=O)Nc2ccc3cnccc3c2)n1 [Compound 61, 1-(isoquinolin-6-yl)-3-(4-(methoxyamino)-6-methylpyrimidin-2-yl)urea]
< 500		CONc1cc(C)nc(NC(=O)Nc2ccc3ccccc3c2)n1 [Compound 44, 1-(4-(methoxyamino)-6-methylpyrimidin-2-yl)-3-(naphthalen-2-yl)urea]
< 500		Cc1cc(NCCCCN(C)C)nc(NC(=O)Nc2ccc3ccccc3c2)n1 [Compound 17]
500 to 5000		Cc1cc(NCCN)nc(NC(=O)Nc2ccc3ncccc3c2)n1 [Compound 107, 1-(4-((2-aminoethyl)amino)-6-methylpyrimidin-2-yl)-3-(quinolin-6-yl)urea]
500 to 5000		Cc1cc(NCCNS(C)(=O)=O)nc(NC(=O)Nc2ccc3ccccc3n2)n1 [Compound 102, N-(2-((6-methyl-2-(3-(quinolin-2-yl)ureido)pyrimidin-4-yl)amino)ethyl)methanesulfonamide]
< 500		Cc1cc(NCCCN(C)C)nc(NC(=O)Nc2ccc3occc3c2)n1 [Compound 80, 1-(benzofuran-5-yl)-3-(4-((3-(dimethylamino)propyl)amino)-6-methylpyrimidin-2-yl)urea]
< 500		CC(=O)NCCCNc1cc(C)nc(NC(=O)Nc2ccc3ccncc3c2)n1 [Compound 118, N-(3-((2-(3-(isoquinolin-7-yl)ureido)-6-methylpyrimidin-4-yl)amino)propyl)acetamide]
5000 to 30000		Cc1cc(NCCCN(C)C)nc(NC(=O)Nc2cc3ccccc3cn2)n1 [Compound 89, 1-(4-((3-(dimethylamino)propyl)amino)-6-methylpyrimidin-2-yl)-3-(isoquinolin-3-yl)urea]
< 500		Cc1cc(NCCO)nc(NC(=O)Nc2ccc3ccccc3c2)n1 [Compound 8]
	500 to 5000	CNCCCNc1cc(C2CC2)nc(NC(=O)Nc2ccc(OC(F)(F)F)cc2)n1 [Compound 211, 1-(4-cyclopropyl-6-((3-(methylamino)propyl)amino)pyrimidin-2-yl)-3-(4-(trifluoromethoxy)phenyl)urea]
< 500		CNC(=O)CCNc1cc(C)nc(NC(=O)Nc2ccc3cnccc3c2)n1 [Compound 77, 3-((2-(3-(isoquinolin-6-yl)ureido)-6-methylpyrimidin-4-yl)amino)-N-methylpropanamide]
< 500		Cc1cc(NCCCN(C)C)nc(NC(=O)Nc2ccc(OC(C)C)cc2)n1 [Compound 136, 1-(4-((3-(dimethylamino)propyl)amino)-6-methylpyrimidin-2-yl)-3-(4-isopropoxyphenyl)urea]
